The record followed here is patent publication US20240262814A1, “MODULATORS OF TREX1” (Constellation Pharmaceuticals, Inc., priority 2021, published 2024).

In one test the target is T1, human TREX1 (Homo sapiens, UniProt Q9NSU2).
T1 construct: N-terminally His-Tev tagged full length human TREX1; made in house; host or cells: E. coli
T1 sequence (Q9NSU2 1-314): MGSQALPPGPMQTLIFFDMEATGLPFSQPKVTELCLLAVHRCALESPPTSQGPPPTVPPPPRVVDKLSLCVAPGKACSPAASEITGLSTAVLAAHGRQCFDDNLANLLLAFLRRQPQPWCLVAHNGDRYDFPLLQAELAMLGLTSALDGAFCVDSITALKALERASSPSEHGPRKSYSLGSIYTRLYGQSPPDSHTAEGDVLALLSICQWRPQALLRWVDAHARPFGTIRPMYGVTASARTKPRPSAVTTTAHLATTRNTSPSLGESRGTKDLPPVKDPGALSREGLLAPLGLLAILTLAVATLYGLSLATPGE
Description: hTREX1 Biochemical Assay (fluorescence, dsDNA substrate degradation). The conditions noted are these: full length human TREX1, 4 h pre-incubation, 18 h reaction at 25° C. The procedure:
(§1) Degradation of the dsDNA liberates free fluorophore to produce a fluorescent signal. Specifically, 7.5 μL of N-terminally His-Tev tagged full length human TREX1 (expressed in E. coli and purified in house) in reaction buffer (50 mM Tris, 150 mM NaCl, 2 mM DTT, 0.1 mg/mL BSA, 0.01% (w/v) Tween-20, 5 mM MgCl2, pH 7.4) was added to a 384-well Black ProxiPlate Plus (PerkinElmer) which already contained compound (150 nL) at varying concentrations as a 10 point dose-response in DMSO. The plate was incubated at 25° C. for 4 hours. Reactions were initiated by adding 7.5 μL of dsDNA substrate (Strand A: 5′ TEX615/GCT AGG CAG 3′; Strand B: 5′ CTG CCT AGC/IAbRQSp (Integrated DNA Technologies)) in reaction buffer. Final concentrations were 4 pM TREX1, 60 nM dsDNA substrate in reaction buffer with 1.0% DMSO (v/v). After 18 hours at 25° C., reactions were quenched by the addition of 2 p L of 500 mM EDTA. Final concentrations in the quenched reaction were 3.5 pM TREX1, 53 nM DNA and 59 mM EDTA in a volume of 17 μL. After a 5-minute incubation at room temperature, plates were read in an EnVision plate reader (PerkinElmer) measuring fluorescence at 615 nm following excitation w/ 570 nm light. IC50 values were calculated by comparing the measured fluorescence at 615 nm relative to control wells pre-quenched w/ EDTA (100% inhibition) and no inhibitor (0% inhibition) controls as using non-linear least square four parameter fits and either Genedata or GraphPad Prism (GraphPad Software, Inc.).

In the next test the target is T2, human TREX2 (Homo sapiens, UniProt Q9BQ50).
T2 construct: human TREX2 (residues M44-A279, expressed in E. coli); made in house; host or cells: E. coli
T2 sequence (Q9BQ50 44-279 isoform Q9BQ50-1): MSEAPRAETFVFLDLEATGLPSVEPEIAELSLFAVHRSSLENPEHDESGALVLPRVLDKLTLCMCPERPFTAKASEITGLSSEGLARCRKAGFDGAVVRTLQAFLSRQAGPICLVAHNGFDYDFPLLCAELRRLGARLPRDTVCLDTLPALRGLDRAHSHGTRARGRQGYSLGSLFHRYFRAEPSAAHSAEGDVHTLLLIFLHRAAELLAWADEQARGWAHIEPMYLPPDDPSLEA
Briefly: hTREX2 Biochemical Assay (selectivity hTREX1 vs hTREX2). The conditions noted are these: biochemical selectivity for hTREX1 vs hTREX2. The procedure: Degradation of the dsDNA liberates free fluorophore to produce a fluorescent signal. Specifically, 7.5 p L of N-terminally His-Tev tagged human TREX2 (residues M44-A279, expressed in E. coli and purified in house) in reaction buffer (50 mM Tris, 150 mM NaCl, 2 mM DTT, 0.1 mg/mL BSA, 0.01% (w/v) Tween-20, 5 mM MgCl2, pH 7.4) was added to a 384-well Black ProxiPlate Plus (PerkinElmer) which already contained compound (150 nL) at varying concentrations as a 10 point dose-response in DMSO. The plate was incubated at 25° C. for 4 hours. Reactions were initiated by adding 7.5 μL of dsDNA substrate (Strand A: 5′ TEX615/GCT AGG CAG 3′; Strand B: 5′ CTG CCT AGC/IAbRQSp (IDT)) in reaction buffer. Final concentrations were 50 pM TREX2, 60 nM dsDNA substrate in reaction buffer with 1.0% DMSO (v/v). After 18 hours at 25° C., reactions were quenched by the addition of 2 μL of 500 mM EDTA. Final concentrations in the quenched reaction mixture were 44 pM TREX2, 53 nM DNA and 59 mM EDTA in a volume of 17 μL. After a 5-minute incubation at room temperature, plates were read in an EnVision plate reader (PerkinElmer) measuring fluorescence at 615 nm following excitation w/ 570 nm light. IC50 values were calculated by comparing the measured fluorescence at 615 nm relative to control wells pre-quenched w/ stop buffer (100% inhibition) and no inhibitor (0% inhibition) controls as using non-linear least square four parameter fits and either Genedata or GraphPad Prism (GraphPad Software, Inc.).

In another test the target is T3, mouse TREX1 (Mus musculus, UniProt Q91XB0).
T3 construct: N-terminally His-Tev tagged full length mouse TREX1; made in house; host or cells: E. coli
T3 sequence (Q91XB0 1-314): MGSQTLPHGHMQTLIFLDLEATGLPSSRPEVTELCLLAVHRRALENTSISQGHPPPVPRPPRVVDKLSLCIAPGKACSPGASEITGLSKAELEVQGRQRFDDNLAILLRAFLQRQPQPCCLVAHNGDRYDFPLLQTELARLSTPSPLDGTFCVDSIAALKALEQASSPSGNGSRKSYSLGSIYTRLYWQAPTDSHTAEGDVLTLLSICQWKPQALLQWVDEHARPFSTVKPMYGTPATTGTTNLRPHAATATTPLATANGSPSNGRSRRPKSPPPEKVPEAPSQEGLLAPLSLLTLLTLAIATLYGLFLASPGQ
Briefly: mTREX1 Biochemical Assay (fluorescence, dsDNA substrate degradation). The conditions noted are these: full length mouse TREX1, 4 h pre-incubation, 18 h reaction at 25° C. The procedure:
as §1, with “Specifically, 7.5 p L of N-terminally” for “Specifically, 7.5 μL of N-terminally”, “full length mouse TREX1 (expressed” for “full length human TREX1 (expressed”, “concentrations were 6 pM TREX1,” for “concentrations were 4 pM TREX1,”, “reaction were 5.3 pM TREX1,” for “reaction were 3.5 pM TREX1,”, “of 17 p L. After a” for “of 17 μL. After a”

Structures are written as SMILES.

A word on the IC50: it is the concentration that inhibits the measured activity by half. A lower IC50 goes with higher potency. On to `CC(c1nc(C(=O)Nc2cnoc2)c(O)c(=O)n1C)C(c1ccccc1)c1ccccc1C#N` (single isomer, unassigned) [Example 3 Isomer 1], for which the half-inhibitory concentration (IC50) was 1 to 10 nM on human TREX1 and > 10 nM against mouse TREX1. Moreover, the “hTREX1 vs hTREX2 selectivity” value on human TREX2 was “B (B = 25 to 50 fold selective for hTREX1)”.

For `CC(c1nc(C(=O)Nc2cnoc2)c(O)c(=O)n1C)C(c1ccccc1)c1ccc(F)cc1C#N` (single isomer, unassigned) [Example 7 Isomer 4], the IC50 against human TREX1 is < 1 nM; against mouse TREX1, 1 to 10 nM. The “hTREX1 vs hTREX2 selectivity” value at human TREX2 is “B (B = 25 to 50 fold selective for hTREX1)”.

As for `CC(c1nc(C(=O)Nc2cnoc2)c(O)c(=O)n1C)C(c1ccccc1)c1ccc(Cl)cc1C#N` (single isomer, unassigned) [Example 9 Isomer 1], the IC50 at human TREX1 is 1 to 10 nM; on mouse TREX1, > 10 nM. In addition, the “hTREX1 vs hTREX2 selectivity” value on human TREX2 is on record as “C (C = >50 fold selective for hTREX1)”.

As for `C[C@H](c1nc(C(=O)Nc2cnoc2)c(O)c(=O)n1C)[C@H](c1ccccc1)c1ccccc1Cl` (single isomer, unassigned) [Example 2 Isomer 2, 2-(1-(2-chlorophenyl)-1-phenylpropan-2-yl)-5-hydroxy-N-(isoxazol-4-yl)-1-methyl-6-oxo-1,6-dihydropyrimidine-4-carboxamide], the IC50 was 10 to 100 nM on human TREX1 and > 10 nM on mouse TREX1. Besides, the “hTREX1 vs hTREX2 selectivity” value at human TREX2 was “A (A = <25 fold selective for hTREX1)”.

`CC(c1nc(C(=O)Nc2cnoc2)c(O)c(=O)n1C)C(c1ccccc1)c1ccccc1C#N` (single isomer, unassigned) [Example 3 Isomer 3]: the figures for the IC50 at human TREX1 and against mouse TREX1 were > 100 nM and > 10 nM, respectively. On human TREX2, the “hTREX1 vs hTREX2 selectivity” value is on record as “A (A = <25 fold selective for hTREX1)”.

In the case of `C[C@H](c1nc(C(=O)Nc2cnoc2)c(O)c(=O)n1C)[C@H](c1ccccc1)c1ccccc1C(F)(F)F` (single isomer, unassigned) [Example 14 Isomer 1, 5-Hydroxy-N-(isoxazol-4-yl)-1-methyl-6-oxo-2-(1-phenyl-1-(2-(trifluoromethyl)phenyl)propan-2-yl)-1,6-dihydropyrimidine-4-carboxamide], the figures for the IC50 against human TREX1 and against mouse TREX1 were > 100 nM and > 10 nM, respectively. In addition, on human TREX2, the “hTREX1 vs hTREX2 selectivity” value is “A (A = <25 fold selective for hTREX1)”.

`CC(c1nc(C(=O)Nc2cnoc2)c(O)c(=O)n1C)C(c1ccccc1)c1cc(Cl)ccc1C#N` (single isomer, unassigned) [Example 8 Isomer 4]: the IC50 was 10 to 100 nM on human TREX1 and > 10 nM at mouse TREX1. Besides, at human TREX2, the “hTREX1 vs hTREX2 selectivity” value is recorded as “B (B = 25 to 50 fold selective for hTREX1)”.

In the case of `CC(c1nc(C(=O)Nc2cnoc2)c(O)c(=O)n1C)C(c1ccccc1Cl)c1ccccc1C#N` (single isomer, unassigned) [Example 10 Isomer 2], the IC50 on human TREX1 is 10 to 100 nM; at mouse TREX1, > 10 nM. Also, on human TREX2, the “hTREX1 vs hTREX2 selectivity” value is on record as “B (B = 25 to 50 fold selective for hTREX1)”.

On to `CC(c1nc(C(=O)Nc2cnoc2)c(O)c(=O)n1C)C(c1cc(F)cc(F)c1)c1ccccc1C#N` (single isomer, unassigned) [Example 11 Isomer 4], for which the IC50 against human TREX1 and against mouse TREX1 was 1 to 10 nM in each case. For the same molecule, the “hTREX1 vs hTREX2 selectivity” value on human TREX2 is reported as “A (A = <25 fold selective for hTREX1)”.

As for `CC(c1nc(C(=O)Nc2cnoc2)c(O)c(=O)n1C)C(c1ccc(F)cc1F)c1ccccc1C#N` (single isomer, unassigned) [Example 13 Isomer 2], the figures for the IC50 at human TREX1 and against mouse TREX1 were < 1 nM and 1 to 10 nM, respectively. For the same molecule, the “hTREX1 vs hTREX2 selectivity” value on human TREX2 is “C (C = >50 fold selective for hTREX1)”.

On to `C[C@H](c1nc(C(=O)Nc2cnoc2)c(O)c(=O)n1C)[C@H](c1ccccc1)c1ccccc1Cl` (single isomer, unassigned) [Example 2 Isomer 4, 2-(1-(2-chlorophenyl)-1-phenylpropan-2-yl)-5-hydroxy-N-(isoxazol-4-yl)-1-methyl-6-oxo-1,6-dihydropyrimidine-4-carboxamide], for which the IC50 against human TREX1 is > 100 nM; against mouse TREX1, > 10 nM. Besides, the “hTREX1 vs hTREX2 selectivity” value at human TREX2 is “A (A = <25 fold selective for hTREX1)”.

Turning to `CC(c1nc(C(=O)Nc2cnoc2)c(O)c(=O)n1C)C(c1ccccc1)c1ccc(F)cc1C#N` (single isomer, unassigned) [Example 7 Isomer 1], the IC50 at human TREX1 is < 1 nM; against mouse TREX1 it was > 10 nM. On human TREX2, the “hTREX1 vs hTREX2 selectivity” value was “C (C = >50 fold selective for hTREX1)”.

Regarding `CC(c1nc(C(=O)Nc2cnoc2)c(O)c(=O)n1C)C(c1ccccc1)c1cc(C(=O)N(C)C)ccc1C#N` (single isomer, unassigned) [Example 17 Isomer 1], the IC50 at human TREX1 is 10 to 100 nM; on mouse TREX1, > 10 nM. In addition, at human TREX2, the “hTREX1 vs hTREX2 selectivity” value is recorded as “A (A = <25 fold selective for hTREX1)”.
